For 6 compounds, DC50 and IC50 results are on record in patent EP4640686A1, “DEGRADER FOR DEGRADING BRD PROTEIN AND PHARMACEUTICAL COMPOSITION CONTAINING SAME” (Innocure Therapeutics, Inc., priority 2022, dated 2024).

Common to all, as to assay type: cell-based
The target of one experiment is BRD4 (Homo sapiens, UniProt O60885). The experiment in a line: BRD4 protein degradation by western blotting in RPMI2650 cells (24 h treatment). Also noted: To evaluate the resolution of PROTAC for BRD4 expressed in cells; endogenous in cells; host or cells: RPMI2650. As to conditions: RPM12650, read-out: BRD4 (DC50). How it is done:
(§1) The synthesized compounds were prepared with a 10 mM or 50 mM raw material solution dissolved in DMSO [dimethyl sulfoxide], and were diluted sequentially and treated. [RPMI2650] and [SNU2972] were cultivated under specific conditions.
(§2) To evaluate the resolution of PROTAC for BRD4 expressed in cells, cells were dispensed in a concentration of 5 X 10^5 cells/well in a 6-well plate, and the sample was treated for 24 hours. […] Protein expression was normalized based on the expression value of β or GAPDH, and protein expression in each sample was measured as % based on 100% of samples treated with 0.1% DMSO vehicle. Protein expression was quantified using Image J program. Change in protein expression volume by compound treatment (DC50: concentration of compounds where 50% protein expression inhibition is achieved) was calculated using the GraphicPad Prism 8.0 software.

The next experiment deals with RPMI2650. The experiment in a line: Cancer cell antiproliferative activity / cell viability in RPMI2650 cells (72 h treatment). As to conditions: Homo sapiens, RPMI-2650, RPM12650, read-out: Cell Viatility (IC50). As for the experimental part: The human breast cancer cell line [MDA-MB-231] was cultured in RPMI medium with the addition of 10% fetal bovine serum, penicillin [100U/ml], and streptomycin [[…]]. The synthesized compounds were prepared with a 10 mM or 50 mM raw material solution dissolved in DMSO [dimethyl sulfoxide], and were diluted sequentially and treated. [RPMI2650] and [SNU2972] were cultivated under specific conditions.
To observe cell growth inhibition, cells were dispensed in a concentration of 5,000 cells/well in a 96-well plate, and samples prepared at various concentrations were treated for 72 hours. The IC50 value (the concentration of the compound achieving 50% cytostaticism) is the average value of the results of three independent measurements.

The target of a further experiment is T1, BRD4-NUT (Homo sapiens, UniProt O60885+Q86Y26).
T1 construct: endogenous in cells; host or cells: RPMI2650
The experiment in a line: BRD4-NUT protein degradation by western blotting in RPMI2650 cells (24 h treatment). As to conditions: RPM12650, read-out: BRD4-NUT (DC50). As for the experimental part: as §1, §2

As for `CC[C@H]1c2nnc(C)n2-c2cnc(Nc3ccc(C(=O)N4CCN(c5ccc(NC6CCC(=O)N(C)C6=O)cc5F)CC4)c(OC)c3)nc2N1CC1CCCCC1` (stereo partly drawn) [ICT-0001554, 3-({4-[4-(4-{[(4S)-5-(cyclohexylmethyl)-4-ethyl-1-methyl-4H,5H-[1,2,4]triazolo[4,3-f]pteridine-7-yl]amino}-2-methoxybenzoyl)piperazine-1-yl]-3-fluorophenyl}amino)-1-methylpiperidine-2,6-dione], the DC50 on BRD4 and on BRD4-NUT was more than 1 µM in each case. Further, the IC50 in the experiment on RPMI2650 is more than 1 µM.

As for `CC[C@@H]1c2nnc(C)n2-c2cnc(Nc3ccc(C(=O)N4CCC(N5CCN(c6ccc7c(=O)n(C8CCC(=O)NC8=O)nc(C)c7c6)CC5)CC4)cc3OC)nc2N1CC1CCCCC1` (stereo partly drawn) [ICT-0001556, 3-(6-(4-(1-(4-(((R)-5-(cyclohexylmethyl)-4-ethyl-1-methyl-4,5-dihydro-[1,2,4]triazolo[4,3-f]pteridine-7-yl)amino)3-methoxybenzoyl)piperidine-4-yl)piperazine-1-yl)4-methyl-1-oxopthalazine-2(1H)-yl)piperidine-2,6-dione], the DC50 at BRD4 and at BRD4-NUT was less than 0.1 µM in each case. Moreover, the IC50 in the experiment with RPMI2650 was more than 1 µM.

In the case of `CC[C@@H]1c2nnc(C)n2-c2cnc(Nc3ccc(C(=O)N4CC(CN5CCN(c6ccc7c(=O)n(C8CCC(=O)NC8=O)nc(C)c7c6)CC5)C4)cc3OC)nc2N1CC1CCCCC1` (stereo partly drawn) [ICT-0001557, 3-(6-(4-((1-(4-(((R)-5-(cyclohexylmethyl)-4-ethyl-1-methyl-4,5-dihydro-[1,2,4]triazolo[4,3-f]pteridine-7-yl)amino)3-methoxybenzoyl)azetidine-3-yl)methyl)piperazine-1-yl)4-methyl-1-oxopthalazine-2(1H)-yl)piperidine-2,6-dione], the DC50 on BRD4 is less than 0.1 µM; on BRD4-NUT it was more than 1 µM. For the same compound, the IC50 with RPMI2650 was more than 1 µM.

Consider `CC[C@@H]1c2nnc(C)n2-c2cnc(Nc3ccc(C(=O)NCCNc4cccc5cnn(C6CCC(=O)NC6=O)c(=O)c45)cc3OC)nc2N1CC1CCCCC1` (stereo partly drawn) [ICT-0001558, 4-(((R)-5-(cyclohexylmethyl)-4-ethyl-1-methyl-4,5-dihydro-[1,2,4]triazolo[4,3-f]pteridine-7-yl)amino)N-(2-((3-(2,6-dioxopiperidin-3-yl)4-oxo-3,4-dihydroptalazine-5-yl)amino)ethyl)-3-methoxybenzamide], for which the DC50 at BRD4 and on BRD4-NUT was less than 0.1 µM each time. Moreover, the IC50 with RPMI2650 is more than 1 µM.

Turning to `CCC1c2nnc(C)n2-c2cnc(Nc3ccc(C(=O)NC4CCN(CCN5CCN(c6ccc7c(=O)n(C8CCC(=O)NC8=O)nc(C)c7c6)CC5)CC4)cc3OC)nc2N1CC1CCCCC1` [ICT-0001560, 4-{[(4S)-5-(cyclohexylmethyl)-4-ethyl-1-methyl-4H,5H-[1,2,4]triazolo[4,3-f]pteridine-7-yl]amino}-N-[1-(2-{4-[2-(2,6-dioxopiperidine-3-yl)-4-methyl-1-oxo-1,2-dihydroptalazine-6-yl]piperazine-1-yl}ethyl)piperidine-4-yl]-3-methoxybenzamide], the DC50 at BRD4 and on BRD4-NUT was less than 0.1 µM throughout. In addition, the IC50 in the experiment on RPMI2650 was more than 1 µM.

Regarding `CCC1c2nnc(C)n2-c2cnc(Nc3ccc(C(=O)NC4CCN(CCN5CCN(c6ccc(NC7CCC(=O)NC7=O)cc6F)CC5)CC4)cc3OC)nc2N1CC1CCCCC1` [ICT-0001561, 4-{[(4S)-5-(cyclohexylmethyl)-4-ethyl-1-methyl-4H,5H-[1,2,4]triazolo[4,3-f]pteridine-7-yl]amino}-N-{1-[2-(4-{4-[(2,6-dioxopiperidin-3-yl)amino]-2-fluorophenyl}piperazine-1-il)ethyl]piperidine-4-yl}-3-methoxybenzamide], the DC50 on BRD4 and at BRD4-NUT was less than 0.1 µM throughout. For the same compound, the IC50 with RPMI2650 was more than 1 µM.
